Reference: patent publication US9539141B2, “System and method for ocular iontophoresis with buffering” (Eyegate Pharmaceuticals, Inc., priority 2008, dated 2017)

Experiment: pH of aqueous solution at dosing concentration
Conditions: aqueous solution at dosing concentration of 40 mg/mL

pH of aqueous solution: 5.7
SMILES: C[C@@H]1C[C@H]2[C@@H]3CCC4=CC(=O)C=C[C@]4(C)[C@@]3(F)[C@@H](O)C[C@]2(C)[C@@]1(O)C(=O)COP(=O)(O)O [dexamethasone phosphate]
